Data reported in the supplement of paper PMC10307832.

Key:
Assay in all cases: relative viability (nuclei count vs DMSO), 5 days (fraction); higher = more cells survive
Vismodegib + Crizotinib = compound: CS(=O)(=O)c1ccc(C(=O)Nc2ccc(Cl)c(-c3ccccn3)c2)c(Cl)c1 [Vismodegib] + C[C@@H](Oc1cc(-c2cnn(C3CCNCC3)c2)cnc1N)c1c(Cl)ccc(F)c1Cl [Crizotinib] (partner 1 µM)
In short: (§1)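 Lung cancer cell lines, seeded in 1536-well plates, were treated the following day by pin tool with a single drug or with five library-drug doses (not always all listed) in √10 steps on top of a fixed anchor-drug dose. Cells were fixed and nuclei stained in one step after 5 days, and nuclei were counted. Relative viability is the nuclei count for treated wells divided by that for vehicle wells, reported as medians of duplicate plates.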

Ruxolitinib + Pemetrexed = compound: N#CC[C@H](C1CCCC1)n1cc(-c2ncnc3[nH]ccc23)cn1 [Ruxolitinib] + Nc1nc2[nH]cc(CCc3ccc(C(=O)N[C@@H](CCC(=O)O)C(=O)O)cc3)c2c(=O)[nH]1 [Pemetrexed] (partner 0.2 µM)
In short: as §1

Ruxolitinib + Crizotinib = compound: N#CC[C@H](C1CCCC1)n1cc(-c2ncnc3[nH]ccc23)cn1 [Ruxolitinib] + C[C@@H](Oc1cc(-c2cnn(C3CCNCC3)c2)cnc1N)c1c(Cl)ccc(F)c1Cl [Crizotinib] (partner 1 µM)
In short: as §1

Ruxolitinib + Luminespib = compound: N#CC[C@H](C1CCCC1)n1cc(-c2ncnc3[nH]ccc23)cn1 [Ruxolitinib] + CCNC(=O)c1noc(-c2cc(C(C)C)c(O)cc2O)c1-c1ccc(CN2CCOCC2)cc1 [Luminespib] (partner 0.01 µM)
In short: as §1

| Cell Line | relative viability (Vismodegib + Crizotinib; first compound 0.08 µM) | relative viability (Vismodegib + Crizotinib; first compound 0.253 µM) | relative viability (Vismodegib + Crizotinib; first compound 0.8 µM) | relative viability (Vismodegib + Crizotinib; first compound 2.53 µM) | relative viability (Vismodegib + Crizotinib; first compound 8 µM) | relative viability (Ruxolitinib + Pemetrexed; first compound 0.08 µM) | relative viability (Ruxolitinib + Pemetrexed; first compound 0.253 µM) | relative viability (Ruxolitinib + Pemetrexed; first compound 0.8 µM) | relative viability (Ruxolitinib + Pemetrexed; first compound 2.53 µM) | relative viability (Ruxolitinib + Pemetrexed; first compound 8 µM) | relative viability (Ruxolitinib + Crizotinib; first compound 0.08 µM) | relative viability (Ruxolitinib + Crizotinib; first compound 0.253 µM) | relative viability (Ruxolitinib + Crizotinib; first compound 0.8 µM) | relative viability (Ruxolitinib + Crizotinib; first compound 2.53 µM) | relative viability (Ruxolitinib + Crizotinib; first compound 8 µM) | relative viability (Ruxolitinib + Luminespib; first compound 0.08 µM) | relative viability (Ruxolitinib + Luminespib; first compound 0.253 µM) | relative viability (Ruxolitinib + Luminespib; first compound 0.8 µM) | relative viability (Ruxolitinib + Luminespib; first compound 2.53 µM) | relative viability (Ruxolitinib + Luminespib; first compound 8 µM) |
| --- | --- | --- | --- | --- | --- | --- | --- | --- | --- | --- | --- | --- | --- | --- | --- | --- | --- | --- | --- | --- |
| NCI-H322M | 0.858 | 0.869 | 0.849 | 0.879 | 1.08 | 0.641 | 0.605 | 0.662 | 0.628 | 0.639 | 0.9 | 1.27 | 1.01 | 1.1 | 1.09 | 0.806 | 0.927 | 0.918 | 0.984 | 1.17 |
| NCI-H358 | 0.596 | 0.479 | 0.546 | 0.551 | 0.579 | 0.174 | 0.152 | 0.177 | 0.163 | 0.126 | 0.677 | 0.577 | 0.686 | 0.512 | 0.417 | 0.309 | 0.238 | 0.312 | 0.362 | 0.168 |
| NCI-H441 | 0.68 | 0.745 | 0.658 | 0.722 | 0.723 | 0.259 | 0.252 | 0.273 | 0.231 | 0.261 | 0.682 | 0.585 | 0.847 | 0.724 | 0.555 | 0.299 | 0.424 | 0.319 | 0.472 | 0.317 |
| NCI-H460 | 0.985 | 0.925 | 1.04 | 0.936 | 0.999 | 0.0622 | 0.0628 | 0.0588 | 0.0628 | 0.063 | 0.985 | 1.02 | 1.01 | 0.803 | 0.447 | 0.0343 | 0.0362 | 0.0405 | 0.0294 | 0.027 |
| NCI-H520 | 0.854 | 0.662 | 0.714 | 0.679 | 0.896 | 0.74 | 0.714 | 0.748 | 0.466 | 0.413 |  | 0.714 | 0.964 | 0.708 | 0.645 | 0.211 | 0.209 | 0.236 | 0.215 | 0.241 |
| NCI-H596 | 0.986 | 0.966 | 0.929 | 1.02 | 0.965 | 0.507 | 0.481 | 0.607 | 0.462 | 0.717 | 0.994 | 0.98 | 1.19 | 0.919 | 0.912 | 1.03 | 0.889 | 1.4 | 1.17 | 1 |
| NCI-H647 | 1.07 | 1.13 | 1.11 | 0.969 | 1.07 | 0.177 | 0.189 | 0.199 | 0.162 | 0.117 | 1.18 | 1.12 | 1.13 | 0.852 | 0.524 | 0.18 | 0.228 | 0.367 | 0.0851 | 0.144 |
| NCI-H650 | 0.61 | 0.702 | 0.687 | 0.809 | 0.865 | 0.898 | 0.98 | 0.958 | 0.966 | 0.683 |  | 0.77 | 0.846 | 0.644 | 0.54 |  | 0.844 | 0.843 | 0.804 | 0.658 |
